Assay [1] addresses T1, ROCK2 (Homo sapiens, UniProt O75116).
T1 construct: purchased Life Technologies PV 3759
The assay can be described thus: Z'-LYTE kinase selectivity assay ROCK2. Format: biochemical. The text has this: (§1) In order to compare the kinase selectivity of compounds (I) according to the invention with known prior art compounds the commercially provided SelectScreen® Kinase Profiling Service (Z′-LYTE®) was used (Life Technologies GmbH, Darmstadt, Germany) to investigate the ability of the compounds to inhibit a number of different, representatively selected human kinases. Further details regarding this service are available on the Life Technologies website at
(§2) The Z′-LYTE® biochemical assay employs a fluorescence-based, coupled-enzyme format and is based on the differential sensitivity of phosphorylated and non-phosphorylated peptides to proteolytic cleavage. The peptide substrate is labeled with two fluorophores—one at each end—that make up a FRET pair.
(§3) In the primary reaction, the kinase transfers the gamma-phosphate of ATP to a single tyrosine, serine or threonine residue in a synthetic FRET-peptide. In the secondary reaction, a site-specific protease recognizes and cleaves non-phosphorylated FRET-peptides. Phosphorylation of FRET-peptides suppresses cleavage by the Development Reagent. Cleavage disrupts FRET between the donor (i.e., coumarin) and acceptor (i.e., fluorescein) fluorophores on the FRET-peptide, whereas uncleaved, phosphorylated FRET-peptides maintain FRET. A ratiometric method, which calculates the ratio (the Emission Ratio) of donor emission to acceptor emission after excitation of the donor fluorophore at 400 nm, is used to quantitate reaction progress, as shown in the equation below.
(§4) The Test Compounds are screened at 1 μM.
The 2×ROCK2 (# PV 3759)/Ser/Thr 13 (Z′-LYTE® Kinase Assay Kit—Ser/Thr 13 Peptide, # PV 3793) mixture is prepared in 50 mM HEPES pH 7.5, 0.01% BRIJ-35, 10 mM MgCl2. 1 mM EGTA. The final 10 μL Kinase Reaction consists of 0.62-4.13 ng ROCK2 and 2 μM Ser/Thr 13 in 50 mM HEPES pH 7.5, 0.01% BRIJ-35, 10 mM MgCl2, 1 mM EGTA. After the 1 hour Kinase Reaction incubation, 5 μL of a 1:1024 dilution of Development Reagent A is added.

Assay [2] concerns the target T2, EPHB2 (Homo sapiens, UniProt P29323).
T2 construct: purchased Life Technologies PV 3625
T2 sequence (P29323 19-1055): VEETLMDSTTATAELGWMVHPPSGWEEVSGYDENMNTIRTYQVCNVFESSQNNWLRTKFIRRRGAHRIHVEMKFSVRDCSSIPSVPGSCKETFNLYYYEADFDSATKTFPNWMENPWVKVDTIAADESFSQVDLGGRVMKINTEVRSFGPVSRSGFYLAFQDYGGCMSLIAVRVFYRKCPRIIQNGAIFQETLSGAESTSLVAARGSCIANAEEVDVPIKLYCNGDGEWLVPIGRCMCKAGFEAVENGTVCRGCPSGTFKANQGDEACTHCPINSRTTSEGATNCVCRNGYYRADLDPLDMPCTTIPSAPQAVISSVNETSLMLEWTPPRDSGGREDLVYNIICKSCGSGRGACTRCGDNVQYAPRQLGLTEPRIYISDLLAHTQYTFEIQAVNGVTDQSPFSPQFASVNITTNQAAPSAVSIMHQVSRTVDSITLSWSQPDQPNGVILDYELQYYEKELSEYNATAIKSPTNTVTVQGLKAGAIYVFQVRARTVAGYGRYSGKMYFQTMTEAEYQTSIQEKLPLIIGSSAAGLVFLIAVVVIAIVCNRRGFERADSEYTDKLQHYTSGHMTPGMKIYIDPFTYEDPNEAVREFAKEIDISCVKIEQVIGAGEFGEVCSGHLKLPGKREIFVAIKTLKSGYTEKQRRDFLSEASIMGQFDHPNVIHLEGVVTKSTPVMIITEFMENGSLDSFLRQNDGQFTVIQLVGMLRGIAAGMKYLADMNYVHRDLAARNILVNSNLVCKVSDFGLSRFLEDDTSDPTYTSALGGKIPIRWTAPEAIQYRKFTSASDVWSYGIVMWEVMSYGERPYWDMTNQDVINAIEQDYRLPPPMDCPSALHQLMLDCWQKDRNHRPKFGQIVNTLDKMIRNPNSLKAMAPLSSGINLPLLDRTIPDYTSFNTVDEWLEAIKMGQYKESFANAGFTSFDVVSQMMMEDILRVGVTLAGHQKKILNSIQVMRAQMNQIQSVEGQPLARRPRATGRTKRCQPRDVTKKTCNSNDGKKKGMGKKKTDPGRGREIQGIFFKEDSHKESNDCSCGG
Briefly: Z'-LYTE kinase selectivity assay EPHB2. Format: biochemical.
Text: as §1, §2, §3, §4
The 2×EPHB2 (# PV 3625)/Tyr 02 (Z′-LYTE® Kinase Assay Kit—Tyrosine 2 Peptide, # PV 3191) mixture is prepared in 50 mM HEPES pH 7.5, 0.01% BRIJ-35, 10 mM MgCl2, 1 mM EGTA. The final 10 μL Kinase Reaction consists of 0.55-36 ng EPHB2 and 2 μM Tyr 02 in 50 mM HEPES pH 7.5, 0.01% BRIJ-35, 10 mM MgCl2, 1 mM EGTA. After the 1 hour Kinase Reaction incubation, 5 μL of a 1:128 dilution of Development Reagent A is added.

These results are taken from patent US10414769B2, “5,8-dimethyl-9-phenyl-5,8-dihydro-6H-pyrazolo[3,4-h]quinazolin-2-yl)-(1H-pyrazol-3-yl)-amines as IGF-1R/IR inhibitors” (Boehringer Ingelheim International GmbH, priority 2015, dated 2019).

The term inhibition denotes the share of the control response that was lost under treatment. High values mean a response far below the control, low ones a response near the control.

T1 sequence (O75116 whole entry): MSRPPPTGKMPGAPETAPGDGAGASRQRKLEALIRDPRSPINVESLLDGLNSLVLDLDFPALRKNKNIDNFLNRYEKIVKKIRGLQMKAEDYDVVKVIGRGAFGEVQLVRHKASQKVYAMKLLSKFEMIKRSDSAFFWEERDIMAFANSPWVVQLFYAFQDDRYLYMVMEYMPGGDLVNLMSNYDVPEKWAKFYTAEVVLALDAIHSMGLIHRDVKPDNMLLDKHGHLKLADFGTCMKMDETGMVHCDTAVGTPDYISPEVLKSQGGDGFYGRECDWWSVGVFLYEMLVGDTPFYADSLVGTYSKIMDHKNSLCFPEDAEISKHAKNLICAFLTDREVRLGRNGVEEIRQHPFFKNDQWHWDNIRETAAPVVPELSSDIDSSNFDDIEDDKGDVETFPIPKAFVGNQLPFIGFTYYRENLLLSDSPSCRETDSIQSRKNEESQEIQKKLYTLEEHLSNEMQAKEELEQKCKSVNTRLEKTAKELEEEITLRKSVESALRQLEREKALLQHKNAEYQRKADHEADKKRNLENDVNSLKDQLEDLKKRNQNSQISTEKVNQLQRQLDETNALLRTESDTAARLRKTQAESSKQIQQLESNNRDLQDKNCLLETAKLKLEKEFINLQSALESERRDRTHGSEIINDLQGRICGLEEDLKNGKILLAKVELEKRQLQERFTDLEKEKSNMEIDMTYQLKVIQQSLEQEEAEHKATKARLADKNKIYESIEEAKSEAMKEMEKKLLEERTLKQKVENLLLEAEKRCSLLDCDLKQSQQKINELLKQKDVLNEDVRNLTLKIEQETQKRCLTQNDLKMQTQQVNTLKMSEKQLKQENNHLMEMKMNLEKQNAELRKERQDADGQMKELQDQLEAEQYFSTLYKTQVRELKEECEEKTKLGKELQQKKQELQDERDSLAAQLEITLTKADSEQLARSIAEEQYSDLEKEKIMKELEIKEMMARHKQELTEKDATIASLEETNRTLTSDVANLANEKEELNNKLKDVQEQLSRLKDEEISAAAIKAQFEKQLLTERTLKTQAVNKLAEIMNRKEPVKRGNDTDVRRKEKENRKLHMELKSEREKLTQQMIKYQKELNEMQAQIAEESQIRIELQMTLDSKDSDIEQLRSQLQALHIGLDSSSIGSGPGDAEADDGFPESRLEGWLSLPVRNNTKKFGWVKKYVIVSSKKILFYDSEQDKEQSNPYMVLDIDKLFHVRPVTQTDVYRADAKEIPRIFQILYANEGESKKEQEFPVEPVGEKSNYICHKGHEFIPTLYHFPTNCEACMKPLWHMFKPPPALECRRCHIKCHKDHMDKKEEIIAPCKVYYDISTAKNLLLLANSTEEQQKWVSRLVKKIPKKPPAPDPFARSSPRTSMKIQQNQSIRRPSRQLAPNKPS

Regarding `CC(O)CN1CCN(CCn2ccc(Nc3ncc4c(n3)-c3c(nn(C)c3-c3ccccc3)C[C@H]4C)n2)CC1` (some centres unmarked) [Compound I-7], the inhibition at 1 µM in assay [1] was 9%; in assay [2], 82%.

`C[C@@H]1Cc2nn(C)c(-c3ccccc3)c2-c2nc(Nc3ccn(CCN4CCN(C)CC4)n3)ncc21` [Compound I-1]: the inhibition at 1 µM in assay [1] was 1%; in assay [2], 64%.

Regarding `C[C@@H]1Cc2nn(C)c(-c3ccccc3)c2-c2nc(Nc3ccn(CCN4CCN(CC(C)(C)O)CC4)n3)ncc21` [Compound I-3], the inhibition at 1 µM in assay [1] was determined as 7%; in assay [2] it was 77%.

In the case of `C[C@@H]1Cc2nn(C)c(-c3ccccc3)c2-c2nc(Nc3ccn(CCN4CCN(CC(=O)OC5CCOCC5)CC4)n3)ncc21` [Compound I-8], the inhibition at 1 µM in assay [1] is 7%; in assay [2], 62%.

As to `COCCN1CCN(CCn2ccc(Nc3ncc4c(n3)-c3c(nn(C)c3-c3ccccc3)C[C@H]4C)n2)CC1` [Compound I-11], the inhibition at 1 µM in assay [1] was determined as 9%; in assay [2], 56%.

For `C[C@@H]1Cc2nn(C)c(-c3ccccc3)c2-c2nc(Nc3ccn(CCN4CCOCC4)n3)ncc21` [Compound I-2], the values for the inhibition at 1 µM in assay [1] and in assay [2] were 6% and 68%, respectively.

Consider `C[C@@H]1Cc2nn(C)c(-c3ccccc3)c2-c2nc(Nc3ccn(CCN4CCN(CC5CCCO5)CC4)n3)ncc21` (some centres unmarked) [Compound I-9], for which the inhibition at 1 µM in assay [1] is 3%; in assay [2], 73%.
